According to patent publication US20020013372A1, “Pharmacophore models for the identification of the CYP2D6 inhibitory potency of selective serotonin reuptake inhibitors” (priority 2000, published 2002):
Several values for one entry are separate records, joined by “and”; a condition that tells them apart may be missing. Equal entries are not always repeated. Where two headings read alike, the source gives them in different places.

Legend:
[1] = biological target: T1, CYP2D6 (Homo sapiens, UniProt P10635); details: cited from earlier work
T1 sequence (P10635 whole entry): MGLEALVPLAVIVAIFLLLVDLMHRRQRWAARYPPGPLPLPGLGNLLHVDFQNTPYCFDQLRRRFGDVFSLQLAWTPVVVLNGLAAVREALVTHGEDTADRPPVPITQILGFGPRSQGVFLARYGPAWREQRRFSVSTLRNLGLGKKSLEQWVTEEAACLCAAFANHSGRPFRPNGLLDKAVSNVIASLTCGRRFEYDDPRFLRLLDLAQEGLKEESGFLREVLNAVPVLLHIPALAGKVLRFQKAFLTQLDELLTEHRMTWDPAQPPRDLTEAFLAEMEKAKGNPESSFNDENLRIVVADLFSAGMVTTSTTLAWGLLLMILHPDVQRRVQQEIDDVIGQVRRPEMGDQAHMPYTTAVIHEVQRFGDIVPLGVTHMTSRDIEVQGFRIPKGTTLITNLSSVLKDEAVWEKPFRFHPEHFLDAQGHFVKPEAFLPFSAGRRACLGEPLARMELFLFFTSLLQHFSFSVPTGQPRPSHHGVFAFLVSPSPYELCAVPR

[2] = biological target: T1, CYP2D6; experiment: In vitro inhibition of CYP2D6, observed Ki (apparent) values from the literature
Excerpt: Many SSRI's are known to be inhibitors of cytochrome P450 (CYP), including CYP2D6 mediated metabolic pathways in vivo and in vitro (Belpair et al., Eur. J Clin. Pharmacol., 54: 261-264, 1998; Crewe et al., Br. J. Clin. Pharmacol., 34: 262-265, 1992; Otton et al, Clin. Pharmacol. Ther., 53: 401-409, 1993; Skjelbo et al., Br. J. Clin. Pharmacol., 34: 256-261, 1992; Stevens et al., J. Pharmacol. Exp. Ther., 266: 964-971, 1993). […] As CYP2D6 is of major concern because of its polymorphic nature (Brosen, Ther. Drug Monitoring, 18: 393-396, 1996), the ability to predict whether a drug will interact with this CYP represents a serious advance in the pharmaceutical arts. The potential for CYP2D6 inhibition in vivo can be predicted reliably using systems such as human liver microsomes and recombinant enzymes, along with a know substrate probe for CYP2D6. By generating a K1 (apparent) value and knowledge of the plasma concentration of the drug, it is possible to reliably predict the likelihood of drug-drug interactions in vivo (Ring et al., J. Pharmacol. Exp. Ther., 275: 1131-1135, 1995).
Present technologies have centered around the use of in vitro testing using human liver microsomes or recombinant CYPs and a known catalytic probe for CYP2D6 such as bufuralol. However, the possible volume of in vitro studies is often limited by equipment and materials cost, incubation volume and the rate of analytical determination. […] Generating this in vitro parameter appears to be dependent on the substrate probe used as well as other experimental variables.

[3] = read-out: observed K1 (apparent), training set of 14 amphetamine compounds, Wu et al., Biochem. Pharmacol. 53: 1605-1612 (1997)
[4] = read-out: Observed K1 (apparent), individual literature values, source per footnote b-l of Table I

Molecule | Ki [1, 3] | Ki [2] | Ki [1, 4]
(+)-methamphetamine | 25 µM | – | –
COc1ccccc1CC(C)N (stereo not drawn) [(d,l)-2-methoxyamphetamine] | 11.5 µM | – | –
NCCC(Oc1ccc(C(F)(F)F)cc1)c1ccccc1 (stereo not drawn) [Norfluoxetine] | – | 1.07 µM | –
COc1cc(CC(C)N)cc2c1OCO2 (stereo not drawn) [(d,l)-3-methoxy-4,5-methylenedioxyamphetamine] | 2.2 µM | – | –
CNCCCC1(c2ccc(F)cc2)OCc2cc(C#N)ccc21 (stereo not drawn) [Desmethylcitalopram] | – | 3.65 µM | 1.3 µM and 6 µM
COc1cc2c(cc1CC(C)N)OCO2 (stereo not drawn) [(d,l)-2-methoxy-4,5-methylenedioxyamphetamine] | 0.17 µM | – | –
CN[C@H]1CC[C@@H](c2ccc(Cl)c(Cl)c2)c2ccccc21 [Sertraline] | – | 6.52 µM | –
C[C@H](N)C(=O)c1ccccc1 [(d,l)-cathinone] | 340 µM | – | –
CN(C)CCCC1(c2ccc(F)cc2)OCc2cc(C#N)ccc21 (stereo not drawn) [Citalopram] | – | 10.4 µM | 5.1 µM and 19 µM and 7 µM
CC(N)Cc1ccc(O)cc1 (single isomer, unassigned; (+)) [(+)-4-hydroxyamphetamine] | 195 µM | – | –
CC(N)Cc1ccc2c(c1)OCO2 (stereo not drawn) [(d,l)-3,4-methylenedioxyamphetamine] | 1.8 µM | – | –
N[C@H]1CC[C@@H](c2ccc(Cl)c(Cl)c2)c2ccccc21 [Desmethylsertraline] | – | – | 16 µM
CNC(C)Cc1ccc2c(c1)OCO2 (stereo not drawn) [(d,l)-3,4-methylenedioxymethamphetamine] | 0.6 µM | – | –
COc1cc(CC(C)N)cc(OC)c1OC (stereo not drawn) [(d,l)-3,4,5-trimethoxyamphetamine] | 128 µM | – | –
CC(N)Cc1ccccc1 (single isomer, unassigned; (+)) [(+)-amphetamine] | 26.5 µM | – | –
COc1cc(OC)c(CC(C)N)c(OC)c1 (stereo not drawn) [(d,l)-2,4,6-trimethoxyamphetamine] | 33 µM | – | –
COc1cccc(CC(C)N)c1 (stereo not drawn) [(d,l)-3-methoxyamphetamine] | 17.5 µM | – | –
CNC(C)Cc1ccc(O)cc1 (stereo not drawn) [(d,l)-4-hydroxymethamphetamine] | 60 µM | – | –
COc1ccc(CC(C)N)cc1 (stereo not drawn) [(d,l)-4-methoxyamphetamine] | 24 µM | – | –
